Results taken from US9376700B2, “Methods of modifying N-termini of a peptide or protein using transferases” (The Trustees of the University of Pennsylvania, priority 2012, dated 2016).
Several values for one entry are separate records, joined by “and”; a condition that tells them apart may be missing. Equal values may be shown once. Entries after “also recorded” stand apart in the source; their conditions may differ. Read-outs that look alike come from different tables or passages of the source.

Key:
[1] = molecular target: T1, E. coli aminoacyl transferase (AaT) (Escherichia coli, UniProt P0A8P1); assay: Real time fluorometric monitoring of Nap transfer from 4d to LysAlaAcm; type: biochemical; parameters: made in house; host or cells: E. coli BL21-Gold (DE3), plasmid pEG6, Ni-NTA purified; conditions: up to 1 mM exogenous adenosine, real time fluorescence
Method: Real time fluorescent monitoring of Nap addition to LysAlaAcm was carried out using reaction solutions prepared on the 500 μL scale in stirred quartz cuvettes with 1.00 cm path lengths. Reagent concentrations were as described elsewhere herein, except that donor 4d was withheld until the cuvette was placed in the fluorometer and temperature equilibrated. Reactions were then initiated by addition of 20 μL of 25 mM Nap-A (4d) stock or water (for negative controls). Fluorescence emission at 390 nm was monitored after excitation at 325 nm. Prior calibration had shown that NapLysAlaAcm (5d) concentrations could be estimated from fluorescence intensity readings (F5d) using the equation [5d]=(1−(F5d/FControl))1.39[LysAlaAcm], where fControl is the fluorescence reading of the reaction with water added instead of 4d. […]
In order to monitor conversion of LysAlaAcm to NapLysAlaAcm (5d) in real time, a fluorometric assay was designed based on intramolecular quenching of aminocoumarin fluorescence by the naphthyl ring. Equimolar solutions of LysAlaAcm and NapLysAlaAcm, as well as mixtures of the two solutions, were prepared and their fluorescence was compared as depicted in FIG. 18A. […]
The present experiment was also achieved to monitor product formation in real time based on partial quenching of coumarin fluorescence upon addition of Nap to the LysAlaAcm peptide to form 5d. […]

[2] = molecular target: T1, E. coli aminoacyl transferase (AaT); assay: A/AMP/ATP/pdCpA inhibition studies of ligation with Phe donor 4a; type: biochemical; parameters: made in house; host or cells: E. coli BL21-Gold (DE3), plasmid pEG6, Ni-NTA purified
Method: Each ligation reaction was performed as described elsewhere herein.
To better understand limitations on the yield from AaT reactions, the possibilities of inhibition by hydrolyzed substrate or aminoacylated product were assessed. Since the acyl adenosine donor substrate is not regenerated during the reaction (unlike the aaRS/tRNA/AaT reaction), it was hypothesized that the adenosine byproduct might inhibit further acylation by binding to AaT. To investigate this possibility, adenosine was added to the reaction at varying concentrations and monitored the reaction timecourse by fluorescence spectroscopy and by HPLC.

[3] = molecular target: T1, E. coli aminoacyl transferase (AaT); assay: LysAlaAcm ligation assay: AaT-catalyzed transfer from aminoacyl adenosine donor to LysAlaAcm, HPLC at 325 nm; type: biochemical; parameters: made in house; host or cells: E. coli BL21-Gold (DE3), plasmid pEG6, Ni-NTA purified; conditions: for Ligated Product Yield (%): 4 h
Method: Each ligation reaction, 125 μL total volume, contained the following reagents: aminoacyl adenosine donor (1 mM), recombinant His10-tagged E. coli aminoacyl transferase (2.26 μM), and LysAlaAcm (100 μM) in the AaT Ligation Buffer (50 mM HEPES pH 8.0, 150 mm KCl, 10 mM MgCl2). The reaction mixtures were incubated at 37° C. for four hours and quenched with 1% acetic acid. The proteins were extracted from the reactions via acetone precipitation. The reactions were precipitated using 4× reaction volume of acetone and cooled at −20° C. for 1 h. Next, the reactions were centrifuged at 13,200 rpm at 4° C. for 20 min to separate the reaction from precipitated protein. The supernatant was transferred to fresh 1.5 mL centrifuge tubes and allowed for acetone evaporation overnight at room temperature. After acetone evaporation, the supernatant was dried in a Speedvac (Savant, Thermo Scientific, Fisher Inc.) for 30 min to remove residual acetone. The resulting reaction volume was dissolved up to 1.2 mL using Milli-Q water and analyzed by HPLC (gradient below) to determine ligation yield by integration of separated peak intensities monitored at 325 nm. Collected HPLC fractions were characterized through MALDI MS analysis. […] Reactions using Phe-pdCpA as donor were carried out in an identical fashion (Ellman, et al., 1991, Methods Enzymol. 202:301-336).
All HPLC analyses of LysAlaAcm ligations were monitored on an Agilent HPLC using a Waters C18 column (Milford, Mass.).
All HPLC analyses of LysAlaAcm ligations were monitored as described elsewhere herein (Gradient 1).
The extent of transfer was evaluated by HPLC analysis of reactions with adenosyl donor, AaT or BpT, and an aminocoumarin-labeled reporter peptide (for AaT, LysAlaAcm was used as previously described by Tirrell and co-workers; for BpT, AspAlaAcm was used in an analogous fashion) (Connor et al., 2008, ChemBioChem 9:366-369). Monitoring LysAlaAcm or AspAlaAcm acylation in crude reaction mixtures using absorbance at 325 nm conveniently eliminates background due to other proteins and nucleic acids, although some non-natural amino acids such as naphthylalanine (Nap) and methoxycoumarinylalanine (Mcm) also absorb in this range.
To evaluate substrate scope, reactions were analyzed after 4 h, when transfer should be complete for the fully enzymatic reaction with Phe tRNA synthetase (Connor et al., 2008, ChemBioChem 9:366-369).

[4] = molecular target: T1, E. coli aminoacyl transferase (AaT)
Method: The LysAlaAcm ligation assay was used to analyze the kinetics of AaT with substrate 4a. The ligation assay was modified for ease of analysis as follows: The total reaction volume was scaled up to 590 μL and all reagents were maintained at the same concentrations as mentioned above, Five concentrations of 4a were monitored for a total reaction time of 30 min, with concentrations ranging from 0.05 to 1 mM.
Each 30 min kinetic experiment was done in triplicate with a total of fourteen 40 μL aliquots for all substrate concentrations.
Therefore, the reaction was characterized in terms of the Michaelis-Menten kinetic scheme in Equation 2.
To determine initial velocities, the primary kinetic data is fit to the hyperbolic Equation 3, which, though phenomenological, produces a high quality fit (R>0.99 for all 5 data sets). Data from the first two minutes were fit to a linear expression (Equation 4). A non-zero intercept is employed for improved quality of fit; this can be justified in terms of a rapid burst phase not captured in the 1 min resolution of this assay.
The initial velocities were then plotted as a function of Phe-A donor concentration and fit to Equation 5 to obtain kcat and KM values, where KM=(k−1+kcat)/k1 as depicted in FIG. 3B.
To characterize the enzymatic activity of AaT toward the present acyl adenosyl substrates, an HPLC assay was used to determine initial reaction rates to be fit to a standard Michaelis-Menten kinetic model.

[5] = HPLC analysis of donor hydrolysis in mock LysAlaAcm reactions without enzyme; type: physicochemical; conditions: mock reaction without AaT, AaT Ligation Buffer pH 8.0, 37° C., after 4 h
Method: The amino acid analog donor (4a-4z) was suspected to be hydrolytically unstable and was tested in mock LysAlaAcm reactions without enzyme present and then analyzed by HPLC. The mock LysAlaAcm reactions were performed as described in the LysAlaAcm Ligation Assay section; however, the AaT solution was replaced with water. Phe-A solutions were analyzed at 30 min, 1 h, and 4 h. Immediately following the reaction, the sample was diluted to 1,200 μL and injected onto the C18 HPLC column using Gradient 1. […] Additionally, 1 mM A and 1 mM Phe were injected on the HPLC to serve as standards to verify retention times. Note that the relative concentrations of 2′ and 3′ Phe-A would be different in an actual reaction where the 3′ Phe-A is preferentially consumed by AaT in the transfer reaction (Watanabe et al., 2007, Nature 449:867-871). The change in 2′:3′ ratio between 0 h and 30 min probably reflected the higher pH of the 30 min data (Taiji et al., 1983, Biochemistry 22:3220-3225).

[6] = molecular target: T2, E. coli aminoacyl tRNA transferase (AaT) (Escherichia coli, UniProt P0A8P1); assay: AaT-catalyzed α-casein N-terminal modification (Edman degradation, tryptic digest MALDI MS); type: biochemical; conditions: Phe donor, additional dose at 4 h, overnight
T2 construct: made in house; host or cells: E. coli BL21-Gold (DE3), plasmid pEG6, Ni-NTA purified
Method: HEPES pH 8.0, 1.50 mM KO, 10 mM MgCl2) and AaT (0.05 mg). The reaction mixture was incubated at 37° C. for 12 h, AaT was removed using Ni^2+ resin (Ni-NTA Superflow, Qiagen), and then buffer exchanged four times into phosphate buffered saline (PBS, 12 mM NaH2PO4, 50 mM NaCl, 4.7 mM KCl, pH 8.0) by Spectra/Por 1 dialysis tubing (Spectrum Laboratories; Rancho Dominguez, Calif.). Azf-modified α-casein was used directly after buffer exchange into PBS. Aliquots (1 nmol) of α-casein were diluted into PBS (22 μL) containing either fluorescein-alkyne (FlAlk, 91 μM) or propargylamine (Alk, 227 μM) for copper-catalyzed azide-alkyne cycloaddition (CuAAC). […] Reactions were boiled with gel loading dye LDS (Pierce; Rockford, Ill.) for 10 min at 95° C. and analyzed by SDS-PAGE. Fluorescence images were obtained with a Geldoc (BioRAD; Hercules, Calif.) using an excitation wavelength of 302 nm for detection of fluorescein. α-Casein was also directly visualized by Coomassie Brilliant Blue staining.
α-Casein-Azf (33 or α-casein (33 μg) was digested with sequencing grade modified Trypsin (0.6 μg) in 27 μL of 25 mM ammonium bicarbonate pH 7.5 (freshly prepared). Digestions were carried out at 37° C. for 14 h. Trypsin digest aliquots (1 μL) were combined with α-cyano-4-hydroxycinnamic acid (1 μL of a saturated solution in 1:1 H2O/CH3CN with 1% TFA) and analyzed by MALDI MS. […]

[7] = 100 μM LysAlaAcm, 0.05 to 1 mM donor

T1 sequence (P0A8P1 whole entry): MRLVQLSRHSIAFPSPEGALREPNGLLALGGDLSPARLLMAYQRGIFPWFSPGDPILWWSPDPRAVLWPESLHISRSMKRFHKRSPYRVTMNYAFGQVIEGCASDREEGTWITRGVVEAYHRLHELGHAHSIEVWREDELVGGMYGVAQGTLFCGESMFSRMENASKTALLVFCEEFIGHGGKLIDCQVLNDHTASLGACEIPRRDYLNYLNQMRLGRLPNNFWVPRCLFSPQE
T2 sequence (P0A8P1 whole entry): as above

Nc1ncnc2c1ncn2[C@@H]1O[C@H](CO)[C@@H](O)[C@H]1O [adenosine]
Inhibition of Nap transfer to LysAlaAcm from 4d [1]: did not significantly inhibit; also recorded: No significant inhibition
Inhibition of addition from the Phe donor 4a ([2]; 5 mM added): not inhibited
Ki ([2]; Phe donor 4a transfer reaction): > 5 mM

Nc1ncnc2c1ncn2[C@@H]1O[C@H](CO)[C@@H](O)[C@H]1OC(=O)[C@@H](N)Cc1ccccc1 [4a, (S)-(2R,3R,4R,5R)-2-(6-Amino-9H-purin-9-yl)-4-hydroxy-5-(hydroxymethyl)tetrahydrofuran-3-2-amino-3-phenylpropanoate]
Transfer to LysAlaAcm by AaT (in words) ([3]; reactions analyzed after 4 h): transferred efficiently
Conversion of LysAlaAcm after a second addition of donor ([3]; second addition of 1 mM 4a): completion
Ligated Product Yield (%) ([3]; single addition of 1 mM donor, 100 μM LysAlaAcm, 2.26 μM AaT, 37° C., no additive): 92% and 92.7 ± 5.2%
Ligated Product Yield (%) ([3]; single addition of donor, additive 1 mM pdCpA): 90.4 ± 0.9%
Km [4, 7]: 124 µM
kcat [4, 7]: 1.68±0.09×10^−1 s^−1
Km ([4]; restated in μM): 124 µM
Donor hydrolysis [5]: completely hydrolyzed
Modification of α-casein N-terminus, Edman degradation [6]: quantitative addition of Phe
